Experimental data taken from ChEMBL document CHEMBL1129878, “Synthesis of 5-epiaragusterol A” (Bioorg Med Chem Lett, 1997).
Values after ≈ are worked out from the molar mass of the structure shown.

Experiments:
KB = experiment: The compound was tested for the inhibitory activity against the proliferation of KB cells; assay type: functional, cell-based; details: Homo sapiens
L1210 = experiment: The compound was tested in vivo for the potent antitumor activity toward L1210 leukemia in mice at the dose of 1.6 (mg/kg); assay type: functional, Mus musculus

Row | SMILES | IC50 (KB) | T/C (L1210)
1 | C[C@@H]1C[C@H]1[C@H](C)C[C@@H](O)[C@@]1([C@H]2CC[C@H]3[C@@H]4CC[C@@H]5CC(=O)CC[C@]5(C)[C@H]4C[C@@H](O)[C@]23C)CO1 [5-EPIARAGUSTEROL A] | 0.041 µg/mL (≈ 0.0894 µM) | –
2 | C[C@@H]1C[C@H]1[C@H](C)C[C@@H](O)[C@@]1([C@H]2CC[C@H]3[C@@H]4CC[C@H]5CC(=O)CC[C@]5(C)[C@H]4C[C@@H](O)[C@]23C)CO1 [ARAGUSTEROL A] | 0.042 µg/mL (≈ 0.0916 µM) | 220%
